From the supplement of paper PMC10331698
± gives the standard deviation of the averaged measurements.

Legend:
Experiment in all cases: level (log10 ratio to DMSO vehicle control); higher = higher biomarker level / cell amount than vehicle control
[1] = compound: COC(=O)C(F)(F)C(F)(F)OC(F)(C(F)(F)F)C(F)(F)OC(F)=C(F)F [Methyl perfluoro(3-(1-ethenyloxypropan-2-yloxy)propanoate)]; details: in DMSO
Protocol: (§1)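 BioMAP Diversity Plus panel of 12 human primary cell co-culture systems (3C, 4H, LPS, SAg, BT, BF4T, BE3C, CASM3C, HDF3CGF, KF3CT, MyoF, Mphg). Compounds were added 1 h before stimulation and left for 24 h (MyoF 48 h; BT 72 h for soluble read-outs or 6 d for IgG). Biomarkers were read by ELISA, cytotoxicity by SRB, PBMC viability and proliferation by Alamar Blue. Each well value was divided by the mean of 8 DMSO control wells on the same plate and log10 transformed; duplicate blinded samples were tested at 4 concentrations.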

[2] = compound: O=C(O)C=CC(F)(C(F)(F)F)C(F)(F)F [3-(Perfluoroisopropyl)-2-propenoic acid]; details: in DMSO
Protocol: as §1

[3] = compound: FC(F)(F)C(F)(F)C(F)(F)CC1CO1 [1H,1H-Heptafluorobutyl epoxide]; details: in DMSO
Protocol: as §1

[4] = compound: C=C(C)C(=O)OCCC(F)(F)C(F)(F)C(F)(F)C(F)(F)C(F)(F)C(F)(F)F [6:2 Fluorotelomer methacrylate]; details: in DMSO
Protocol: as §1

[5] = compound: FC(F)(F)C(F)(F)C(F)(F)C(F)(F)C(F)(F)C(F)(F)C(F)(F)I [1-Iodopentadecafluoroheptane]; details: in DMSO
Protocol: as §1

Octafluoroadipamide = compound: NC(=O)C(F)(F)C(F)(F)C(F)(F)C(F)(F)C(N)=O [Octafluoroadipamide]; details: in DMSO
Protocol: as §1

Heptafluorobutyl iodide = compound: FC(F)(F)C(F)(F)C(F)(F)CI [Heptafluorobutyl iodide]; details: in DMSO
Protocol: as §1

[6] = compound: C=CC(=O)OCC(F)(F)C(F)(F)C(F)(F)COC(=O)C=C [1H,1H,5H,5H-Perfluoro-1,5-pentanediol diacrylate]; details: 6700 nM; in DMSO
Protocol: as §1

Test System | level (log10) ([1]; 6700 nM) | level (log10) ([1]; 20000 nM) | level (log10) ([2]; 6700 nM) | level (log10) ([2]; 20000 nM) | level (log10) ([2]; 60000 nM) | level (log10) ([3]; 6700 nM) | level (log10) ([3]; 20000 nM) | level (log10) ([3]; 60000 nM) | level (log10) ([4]; 6700 nM) | level (log10) ([4]; 20000 nM) | level (log10) ([4]; 60000 nM) | level (log10) ([5]; 6700 nM) | level (log10) ([5]; 20000 nM) | level (log10) (Octafluoroadipamide; 6700 nM) | level (log10) (Octafluoroadipamide; 20000 nM) | level (log10) (Octafluoroadipamide; 60000 nM) | level (log10) (Heptafluorobutyl iodide; 6700 nM) | level (log10) (Heptafluorobutyl iodide; 20000 nM) | level (log10) (Heptafluorobutyl iodide; 60000 nM) | level (log10) [6]
BT:PBMC Cytotoxicity | 0.0195 ± 0.036 | 0.049 ± 0.058 | -0.016 ± 0.0042 | 0.002 ± 0.0042 | 0.021 ± 0.0057 | 0.0175 ± 0.026 | -0.0025 ± 0.022 | 0.017 ± 0.013 | 0.0045 ± 0.021 | 0.018 ± 0.03 | 0.0285 ± 0.032 | 0.014 ± 0.0057 | 0.0075 ± 0.049 | 0.0125 ± 0.0021 | 0.018 ± 0.011 | 0.005 ± 0.051 | 0.0515 ± 0.029 | 0.01 ± 0.0028 | 0.0125 ± 0.032 | -0.201 ± 0.0092
BT:Secreted IgG | 0.006 ± 0.0014 | 0.007 ± 0.03 | -0.041 ± 0.048 | -0.0035 ± 0.016 | -0.0205 ± 0.013 | 0.017 ± 0.038 | -0.0175 ± 0.043 | 0.008 ± 0.033 | 0.0165 ± 0.00071 | -0.0065 ± 0.005 | -0.0095 ± 0.023 | -0.006 ± 0.05 | -0.01 ± 0.044 | 0.0345 ± 0.018 | 0.037 ± 0.0028 | 0.0215 ± 0.0078 | 0.038 ± 0.02 | 0.0585 ± 0.018 | 0.0375 ± 0.028 | -0.565 ± 0.17
BT:sIL-2 | -0.0335 ± 0.018 | -0.059 ± 0.038 | 0.029 ± 0.058 | -0.049 ± 0.12 | 0.001 ± 0.0085 | -0.0245 ± 0.0092 | -0.055 ± 0.15 | 0.022 ± 0.18 | 0.0005 ± 0.012 | -0.0195 ± 0.053 | -0.036 ± 0.025 | -0.113 ± 0.07 | -0.017 ± 0.081 | 0.137 ± 0.073 | 0.116 ± 0.061 | 0.126 ± 0.027 | 0.001 ± 0.071 | 0.0735 ± 0.028 | -0.027 ± 0.058 | -0.651 ± 0.08
BT:sIL-6 | 0.016 ± 0.024 | 0.0175 ± 0.047 | 0.032 ± 0.089 | -0.0455 ± 0.056 | -0.025 ± 0.03 | 0.002 ± 0.0014 | -0.023 ± 0.042 | -0.0725 ± 0.071 | 0.017 ± 0.014 | 0.059 ± 0.017 | -0.004 ± 0.089 | -0.0825 ± 0.0078 | 0.024 ± 0.044 | 0.0215 ± 0.037 | 0.024 ± 0.0057 | 0.0065 ± 0.016 | 0.0525 ± 0.0092 | 0.0485 ± 0.0035 | 0.003 ± 0.014 | -0.692 ± 0.031
BT:sIL-17F | -0.027 ± 0.018 | -0.064 ± 0.12 | -0.088 ± 0.081 | -0.014 ± 0.054 | 0.0025 ± 0.043 | 0.0235 ± 0.015 | -0.0505 ± 0.063 | 0.0025 ± 0.1 | -0.0095 ± 0.032 | -0.023 ± 0.02 | -0.046 ± 0.014 | -0.0435 ± 0.049 | -0.0545 ± 0.16 | 0.0465 ± 0.057 | 0.073 ± 0.05 | 0.06 ± 0.082 | 0.033 ± 0.078 | 0.031 ± 0.016 | 0.029 ± 0.033 | -1 ± 0.04
BT:sTNF-alpha | -0.0085 ± 0.018 | 0.0935 ± 0.032 | -0.0275 ± 0.04 | -0.149 ± 0.1 | -0.028 ± 0.03 | -0.042 ± 0.12 | -0.038 ± 0.02 | -0.123 ± 0.19 | -0.0045 ± 0.0035 | 0.0045 ± 0.012 | -0.068 ± 0.058 | -0.051 ± 0.018 | 0.093 ± 0.17 | 0.058 ± 0.23 | 0.116 ± 0.098 | 0.194 ± 0.077 | -0.035 ± 0.22 | 0.149 ± 0.096 | 0.0905 ± 0.069 | -0.94 ± 0.21
SAg:CXCL8/IL-8 | -0.0155 ± 0.026 | 0.055 ± 0.15 | -0.0185 ± 0.005 | -0.0015 ± 0.033 | 0.009 ± 0.028 | -0.012 ± 0.05 | -0.011 ± 0.021 | 0.005 ± 0.027 | 0.0095 ± 0.005 | -0.0165 ± 0.0021 | 0.044 ± 0.011 | -0.034 ± 0.035 | 0.0055 ± 0.073 | -0.001 ± 0.04 | 0.0075 ± 0.015 | 0.02 ± 0.0014 | -0.053 ± 0.04 | -0.0345 ± 0.019 | -0.02 ± 0.072 | -0.259 ± 0.13
SAg:CXCL9/MIG | -0.0145 ± 0.021 | 0.0055 ± 0.0035 | -0.0105 ± 0.025 | 0.013 | -0.006 ± 0.0085 | -0.0155 ± 0.0078 | -0.0165 ± 0.015 | -0.0065 ± 0.018 | 0.007 ± 0.023 | 0.0085 ± 0.011 | 0.012 ± 0.025 | 0.006 ± 0.0071 | 0.02 ± 0.0042 | 0 | -0.0045 ± 0.0064 | -0.0005 ± 0.013 | -0.007 ± 0.0028 | -0.0025 ± 0.0021 | -0.0085 ± 0.0092 | 0.0025 ± 0.0078
